The source of these data is patent US8703796B2, “3H-imidazo [4, 5-B] pyridine-6-carboxamides as anti-inflammatory agents” (Boehringer Ingelheim International GmbH, priority 2008, dated 2014).

What is called inhibition is the drop in the measured response relative to a control, in per cent.

The structures appear in SMILES notation.

This assay concerns the target T1, recombinant human mPGES-1 (Homo sapiens, UniProt O14684).
T1 construct: made in house; host or cells: Rosetta E. coli (microsomal/membrane fraction)
T1 sequence (O14684 1-152): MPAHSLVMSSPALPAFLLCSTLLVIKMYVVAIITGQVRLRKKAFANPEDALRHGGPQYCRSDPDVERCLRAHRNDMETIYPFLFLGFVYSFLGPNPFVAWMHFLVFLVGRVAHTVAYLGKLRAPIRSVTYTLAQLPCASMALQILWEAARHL
The experiment in a line: mPGES-1 inhibition, HTRF detection of PGE2. Type of assay: biochemical. A digest of the protocol: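 Microsomes from E. coli expressing recombinant human mPGES-1 in 0.1 M KPi pH 7.4 with 2.5 mM GSH were preincubated with inhibitor 25 min at room temperature. PGH2 was then added, and the reaction was stopped after 1 min with acidified FeCl2. PGE2 was quantified by HTRF (665/620 nm ratio) against a synthetic PGE2 standard curve.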
Turning to `COCCOc1nc2[nH]c(Nc3c(Cl)cncc3Cl)nc2cc1C(=O)Nc1ccc(Br)cc1` [Example 801, 2-(3,5-Dichloro-pyridin-4-ylamino)-5-(2-methoxy-ethoxy)-N-(4-bromo-phenyl)-3H-imidazo[4,5-b]pyridine-6-carboxamide], the inhibition at 10 µM came to 96%.
The same measure, in the same setting: to `COCCOc1nc2[nH]c(Nc3c(Cl)cncc3Cl)nc2cc1C(=O)NCC(F)(F)C(F)(F)C(F)(F)C(F)(F)F` [Example 802, 2-(3,5-Dichloro-pyridin-4-ylamino)-5-(2-methoxy-ethoxy)-N-(2,2,3,3,4,4,5,5,5-nonafluoro-pentyl)-3H-imidazo[4,5-b]pyridine-6-carboxamide] belongs 96%.
On to `O=C(Nc1cc(C(F)(F)F)ccn1)c1cc2nc(Nc3c(Cl)cncc3Cl)[nH]c2nc1OCC(F)F` [Example 803, 2-(3,5-Dichloro-pyridin-4-ylamino)-5-(2,2-difluoro-ethoxy)-N-(4-trifluoromethyl-pyridin-2-yl)-3H-imidazo[4,5-b]pyridine-6-carboxamide], for which the inhibition at 10 µM stood at 99%.
Same read-out and setting: to `O=C(Nc1ccc(Br)cc1)c1cc2nc(Nc3c(Cl)cncc3Cl)[nH]c2nc1OCC(F)F` [Example 804, 2-(3,5-Dichloro-pyridin-4-ylamino)-5-(2,2-difluoro-ethoxy)-N-(4-bromo-phenyl)-3H-imidazo[4,5-b]pyridine-6-carboxamide] belongs 98%; to `O=C(NCc1ccccc1C(F)(F)F)c1cc2nc(Nc3c(Cl)cncc3Cl)[nH]c2nc1OCC(F)F` [Example 805, 2-(3,5-Dichloro-pyridin-4-ylamino)-5-(2,2-difluoro-ethoxy)-N-((2-trifluoromethyl-phenyl)-methyl)-3H-imidazo[4,5-b]pyridine-6-carboxamide], 98%; to `O=C(NCC(F)(F)C(F)(F)C(F)(F)C(F)(F)F)c1cc2nc(Nc3c(Cl)cncc3Cl)[nH]c2nc1OCC(F)F` [Example 807, 2-(3,5-Dichloro-pyridin-4-ylamino)-5-(2,2-difluoro-ethoxy)-N-(2,2,3,3,4,4,5,5,5-nonafluoro-pentyl)-3H-imidazo[4,5-b]pyridine-6-carboxamide], 90%.
The same measure, in the same setting: to `COCCOc1nc2[nH]c(Nc3c(Cl)cncc3Cl)nc2cc1C(=O)Nc1cc(C(F)(F)F)ccn1` [Example 808, 2-(3,5-Dichloro-pyridin-4-ylamino)-5-(2-methoxy-ethoxy)-N-(4-trifluoromethyl-pyridin-2-yl)-3H-imidazo[4,5-b]pyridine-6-carboxamide] belongs 100%; to `CC(=O)N(C)CCOc1nc2[nH]c(Nc3c(Cl)cncc3Cl)nc2cc1C(=O)NCC(F)(F)C(F)(F)C(F)(F)C(F)(F)F` [Example 809, 2-(3,5-Dichloro-pyridin-4-ylamino)-5-(2-(acetyl-methyl-amino)-ethoxy)-N-(2,2,3,3,4,4,5,5,5-nonafluoro-pentyl)-3H-imidazo[4,5-b]pyridine-6-carboxamide], 100%; to `CC(=O)N(C)CCOc1nc2c(cc1C(=O)Nc1ccc(Br)cc1)nc(Nc1c(Cl)cncc1Cl)n2C` [Example 810, 2-(3,5-Dichloro-pyridin-4-ylamino)-5-(2-(acetyl-methyl-amino)-ethoxy)-N-(4-bromo-phenyl)-3-methyl-3H-imidazo[4,5-b]pyridine-6-carboxamide], 96%.
As for `CC(=O)N(C)CCOc1nc2c(cc1C(=O)NCC(F)(F)C(F)(F)C(F)(F)C(F)(F)F)nc(Nc1c(Cl)cncc1Cl)n2C` [Example 811, 2-(3,5-Dichloro-pyridin-4-ylamino)-5-(2-(acetyl-methyl-amino)-ethoxy)-N-(2,2,3,3,4,4,5,5,5-nonafluoro-pentyl)-3-methyl-3H-imidazo[4,5-b]pyridine-6-carboxamide], the inhibition at 1 µM amounted to 94%.
As to `COCCOc1nc2c(cc1C(=O)Nc1ccc(Br)cc1)nc(Nc1c(Cl)cncc1Cl)n2C` [Example 812, 2-(3,5-Dichloro-pyridin-4-ylamino)-5-(2-methoxy-ethoxy)-N-(4-bromo-phenyl)-3-methyl-3H-imidazo[4,5-b]pyridine-6-carboxamide], the inhibition at 10 µM turned out to be 97%.
Same read-out and setting: to `Cn1c(Nc2c(Cl)cc(F)cc2Cl)nc2cc(C(=O)NCc3ncccc3C(F)(F)F)c(OCC(F)(F)F)nc21` [Example 813, 2-(2,6-Dichloro-4-fluoro-phenylamino)-5-(2,2,2-trifluoro-ethoxy)-N-((3-trifluoromethyl-pyridin-2-yl)-methyl)-3-methyl-3H-imidazo[4,5-b]pyridine-6-carboxamide] belongs 99%.
With `Cn1c(Nc2c(Cl)cc(F)cc2Cl)nc2cc(C(=O)N[C@H]3CC[C@H](C(F)(F)F)CC3)c(OCC(F)(F)F)nc21` [Example 814, 2-(2,6-Dichloro-4-fluoro-phenylamino)-5-(2,2,2-trifluoro-ethoxy)-N-(trans-4-trifluoromethyl-cyclohexyl)-3-methyl-3H-imidazo[4,5-b]pyridine-6-carboxamide], the inhibition at 10 µM stood at 97%.
Still for that read-out and setting: to `Cn1c(Nc2c(Cl)cc(F)cc2Cl)nc2cc(C(=O)Nc3cc(C(F)(F)F)ccn3)c(OCC(F)(F)F)nc21` [Example 815, 2-(2,6-Dichloro-4-fluoro-phenylamino)-5-(2,2,2-trifluoro-ethoxy)-N-(4-trifluoromethyl-pyridin-2-yl)-3-methyl-3H-imidazo[4,5-b]pyridine-6-carboxamide] belongs 100%.
Same read-out and setting: to `Cn1c(Nc2c(Cl)cc(F)cc2Cl)nc2cc(C(=O)Nc3ccc(Br)cc3)c(OCC(F)(F)F)nc21` [Example 816, 2-(2,6-Dichloro-4-fluoro-phenylamino)-5-(2,2,2-trifluoro-ethoxy)-N-(4-bromo-phenyl)-3-methyl-3H-imidazo[4,5-b]pyridine-6-carboxamide] belongs 97%; to `Cn1c(Nc2c(Cl)cc(F)cc2Cl)nc2cc(C(=O)Nc3cc(C(F)(F)F)ccn3)c(OCC(F)F)nc21` [Example 817, 2-(2,6-Dichloro-4-fluoro-phenylamino)-5-(2,2-difluoro-ethoxy)-N-(4-trifluoromethyl-pyridin-2-yl)-3-methyl-3H-imidazo[4,5-b]pyridine-6-carboxamide], 96%; to `Cn1c(Nc2c(Cl)cc(F)cc2Cl)nc2cc(C(=O)Nc3ccc(Br)cc3)c(OCC(F)F)nc21` [Example 818, 2-(2,6-Dichloro-4-fluoro-phenylamino)-5-(2,2-difluoro-ethoxy)-N-(4-bromo-phenyl)-3-methyl-3H-imidazo[4,5-b]pyridine-6-carboxamide], 99%.
Still for that read-out and setting: to `O=C(Nc1cc(C(F)(F)F)ccn1)c1cc2nc(Nc3c(Cl)cc(F)cc3Cl)[nH]c2nc1OCC(F)(F)F` [Example 819, 2-(2,6-Dichloro-4-fluoro-phenylamino)-5-(2,2,2-trifluoro-ethoxy)-N-(4-trifluoromethyl-pyridin-2-yl)-3H-imidazo[4,5-b]pyridine-6-carboxamide] belongs 96%; to `O=C(Nc1ccc(Br)cc1)c1cc2nc(Nc3c(Cl)cc(F)cc3Cl)[nH]c2nc1OCC(F)(F)F` [Example 820, 2-(2,6-Dichloro-4-fluoro-phenylamino)-5-(2,2,2-trifluoro-ethoxy)-N-(4-bromo-phenyl)-3H-imidazo[4,5-b]pyridine-6-carboxamide], 99%.
As to `O=C(Nc1cc(C(F)(F)F)ccn1)c1cc2nc(Nc3c(Cl)cc(F)cc3Cl)[nH]c2nc1OCC(F)F` [Example 821, 2-(2,6-Dichloro-4-fluoro-phenylamino)-5-(2,2-difluoro-ethoxy)-N-(4-trifluoromethyl-pyridin-2-yl)-3H-imidazo[4,5-b]pyridine-6-carboxamide], the inhibition at 10 µM came out at 90%.
On the same count and under the same terms, under `O=C(Nc1ccc(Br)cc1)c1cc2nc(Nc3c(Cl)cc(F)cc3Cl)[nH]c2nc1OCC(F)F` [Example 822, 2-(2,6-Dichloro-4-fluoro-phenylamino)-5-(2,2-difluoro-ethoxy)-N-(4-bromo-phenyl)-3H-imidazo[4,5-b]pyridine-6-carboxamide] stands 100%.
On the same count and under the same terms, to `O=C(N[C@H]1CC[C@H](C(F)(F)F)CC1)c1cc2nc(Nc3c(Cl)cc(F)cc3Cl)[nH]c2nc1OCC(F)F` [Example 823, 2-(2,6-Dichloro-4-fluoro-phenylamino)-5-(2,2-difluoro-ethoxy)-N-(trans-4-trifluoromethyl-cyclohexyl)-3H-imidazo[4,5-b]pyridine-6-carboxamide] belongs 91%; to `O=C(NCc1ccccc1C(F)(F)F)c1cc2nc(Nc3c(Cl)cc(F)cc3Cl)[nH]c2nc1OCC(F)F` [Example 824, 2-(2,6-Dichloro-4-fluoro-phenylamino)-5-(2,2-difluoro-ethoxy)-N-(2-trifluoromethyl-benzyl)-3H-imidazo[4,5-b]pyridine-6-carboxamide], 100%.
As to `O=C(NCC(F)(F)C(F)(F)C(F)(F)C(F)(F)F)c1cc2nc(Nc3c(Cl)cc(F)cc3Cl)[nH]c2nc1OCC(F)F` [Example 825, 2-(2,6-Dichloro-4-fluoro-phenylamino)-5-(2,2-difluoro-ethoxy)-N-(2,2,3,3,4,4,5,5,5-nonafluoropentyl)-3H-imidazo[4,5-b]pyridine-6-carboxamide], the inhibition at 10 µM was 98%.
On the same count and under the same terms, under `O=C(NCc1ncccc1C(F)(F)F)c1cc2nc(Nc3c(Cl)cc(F)cc3Cl)[nH]c2nc1OCC(F)F` [Example 826, 2-(2,6-Dichloro-4-fluoro-phenylamino)-5-(2,2-difluoro-ethoxy)-N-((3-trifluoromethyl-pyridin-2-yl)-methyl)-3H-imidazo[4,5-b]pyridine-6-carboxamide] stands 100%; under `O=C(N[C@H]1CC[C@H](C(F)(F)F)CC1)c1cc2nc(Nc3c(Cl)cc(F)cc3Cl)[nH]c2nc1OCC(F)(F)F` [Example 827, 2-(2,6-Dichloro-4-fluoro-phenylamino)-5-(2,2,2-trifluoro-ethoxy)-N-(trans-4-trifluoromethyl-cyclohexyl)-3H-imidazo[4,5-b]pyridine-6-carboxamide], 100%.
